Assay results reported in patent US11033546B2, “Solubilized compositions for controlled proliferation of stem cells / generating inner ear hair cells using a GSK3 inhibitor: I” (Frequency Therapeutics, Inc., priority 2016, dated 2021).
Like-named read-outs stand apart in the source and are kept apart here.

Tests used:
[1] = Solubility of CHIR99021 diHCl in Poloxamer P-407/water solutions under refrigeration; format: physicochemical; settings: for solubility at 2 days: aqueous with cosolvent or surfactant or cyclodextrin, thermodynamic from solid, no DMSO or other additives, read-out: CHIR99021 diHCl Conc (solubility)
Protocol: CHIR99021 diHCl was combined with Poloxamer P-407 and water. Samples were prepared ice-cold and allowed to incubate in the refrigerator for 2 days with occasional vortexing.
The solubility results shown below in Table 1 for refrigeration conditions. The only components in the poloxamer solution in the samples were P-407 and water (no DMSO or any other additives). The 20% sample was a gel at room temperature and the 15% sample was syrup, while the 10% and 5% samples were more fluid.

[2] = Solubility of CHIR99021 diHCl in PBS with or without 17 wt % poloxamer 407, judged by eye and transmitted light microscopy; format: physicochemical; settings: 17 wt % poloxamer 407 in 1×PBS versus 1×PBS alone; 25 mg/ml (supersaturated); pH approximately 7.5; stirred overnight at room temperature
Protocol: CHIR99021 diHCl was combined with either 1×PBS or 17 wt % poloxamer 407 in 1×PBS at a concentration of 25 mg/ml, which was supersaturated for both solutions. After stirring the mixtures overnight at room temperature, the pH of the PBS buffers was adjusted to a pH of approximately 7.5.

- solubility at 2 days ([1]; 10% Poloxamer P-407 in water, 10% P-407 in water): 2.6 µg/mL
- solubility at 2 days ([1]; 15% Poloxamer P-407 in water, 15% P-407 in water): 7.9 µg/mL
- solubility at 2 days ([1]; 20% Poloxamer P-407 in water, 20% P-407 in water): 13.5 µg/mL
- solubility as judged by eye and transmitted light microscopy [2]: appeared more soluble
Compound: Cc1c[nH]c(-c2cnc(NCCNc3ccc(C#N)cn3)nc2-c2ccc(Cl)cc2Cl)n1 [CHIR99021 diHCl, 6-[[2-[[4-(2,4-Dichlorophenyl)-5-(5-methyl-1H-imidazol-2-yl)-2-pyrimidinyl]amino]ethyl]amino]-3-pyridinecarbonitrile]
- solubility trend in P-407 solutions ([1]; 5% to 20% P-407 in water): improved solubility with increasing % poloxamer concentration
